Test results published in patent EP3708171A1, “TREATMENT OF VITAMIN D DEFICIENCY WITH 25(OH) VITAMIN D IN CRITICALLY ILL PATIENTS” (Bouillon, Roger, priority 2019, dated 2020).

Tests used:
[1] = cited from earlier work
[2] = normal subjects; cited from earlier work
[3] = Randomized, placebo-controlled pilot study of IV 25OHD supplementation in critically ill (ICU) patients; serum vitamin D metabolites and DBP (Example 1); type: in vivo
Protocol: The study was performed in accordance with the 1964 Declaration of Helsinki and its later amendments. The protocol and consent forms were approved by the institutional review board of the University Hospitals Leuven (ML2462). The study was registered at www.controlled-trials.com (ISRCTN24385496). Patients with an anticipated stay in the intensive care unit (ICU) of more than 10 days were eligible for inclusion in the study. Patients younger than 18 years, those suffering from chronic bone or kidney disease, and those who were treated with glucocorticoids before ICU admission were excluded. Patients were compared with healthy controls matched for age, gender and body mass index, of whom blood was sampled during summer time.
Upon ICU admission, patients were randomly allocated to either a daily IV injection of placebo (NaCl 0.9%) or to an IV loading dose of 200 µg 25OHD, followed by an IV replacement dose of 15 µg 25OHD per day, from ICU admission onward and continued for 10 days. Patients from both groups also received the usual vitamin D supplement, which consisted of a daily intravenous cholecalciferol supplement of +/-200 IU (5 µg, as part of 10 ml of Cernevit® (Clinitec-Baxter, Brussels, Belgium). 25OHD was obtained from Solvay Pharmaceuticals (Brussels, Belgium) and dissolved in ethanol by the hospital pharmacy under laminar flow conditions in glass vials, containing 200 µg/ml per vial for the loading dose and 15 µg/ml per vial for the replacement dose. A purity control was performed on the prepared samples using HPLC. Similarly, placebo vials were also prepared by the hospital pharmacy (1 ml NaCl 0.9% per vial). All vials were blinded by the hospital pharmacy.
The effect of IV 25OHD supplementation on vitamin D status (25OHD, 1,25(OH)2D, 24,25(OH)2D) was studied. Clinical outcome parameters (organ dysfunction (sequential organ failure assessment (SOFA) score, days on mechanical ventilation, need for renal replacement therapy), prolonged (>3 days) antibiotic therapy, ICU length of stay and mortality) were registered as safety endpoints. All patients were followed up and monitored for possible adverse events beyond the intervention period of 10 days until discharge or death. Analysts and investigators were blinded for treatment allocation.
Every day at 06.00 a.m., from ICU admission until ICU discharge or death, undiluted blood samples were taken through an arterial line that had been placed for clinical purposes. Serum and plasma samples were frozen and subsequently stored at -20°C until assay. Concentrations of 25OHD, 1,25(OH)2D, and 24,25(OH)2D were measured in serum.
25OHD was measured by competitive binding assay; 1,25(OH)2D by radioimmunoassay (RIA), and DBP by radial immunodiffusion, as previously reported by Bouillon et al (J Clin Invest 1981 67 589-596). A subset of the original 25OHD measurements were subsequently validated by re-analyses using LC-MS/MS, currently considered the gold standard. To this end, 58 samples from patients (treated with 25OHD or placebo) and controls were selected at random covering the full range of 25OHD serum concentrations (3.7-70.7 ng/ml). Briefly, serum proteins were precipitated using zinc sulphate solution, spiked with d6-25OHD3 as internal standard. After mixing and centrifugation, the supernatant was transferred to the liquid chromatography autosampler. We used a ScieX 5500 QTRAP mass spectrometer connected with a Shimadzu chromatographic system. The method consisted of an online clean-up step using a Strata C8 extraction cartridge. After loading and cleaning, the analytes were eluted by back-flushing. A Kinetex F5 column was used as analytical column. Atmospheric-pressure chemical ionization (APCI) positive mode was used. Mass transitions of 383>211, 295>211 and 389>211 were used for 25OHD3, 25OHD2 and the internal standard, respectively. Within-run and between-run CVs at clinically relevant concentrations varied between 6.3-7.4% and 6.9-8.8% respectively. […]

[4] = Further trial of IV 25OHD with higher replacement dose in critically ill patients (Example 2); type: in vivo; conditions: IV loading dose, then 25 µg 25OHD per day for 10 days
Protocol: The study design and materials are similar to the one described in Example 1, the difference being that the patients are administered higher bolus and daily replacement doses of 25OHD for at least two days after the bolus administration and preferably during the hospital stay of such patients .
The study is performed in accordance with the 1964 Declaration of Helsinki and its later amendments. Patients with an anticipated stay in the intensive care unit (ICU) of more than 10 days are considered eligible for inclusion in the study. […]
The effect of IV 25OHD supplementation on vitamin D status (25OHD) is studied. […] All patients are followed up and monitored for possible adverse events beyond the intervention period of 10 days until discharge or death. […]
Every day at 06.00 a.m., from ICU admission until ICU discharge or death, undiluted blood samples are taken through an arterial line that is present for clinical purposes. […] Concentrations of 25OHD are measured in serum.
StatView 5.0.1 (SAS Institute Inc., Cary, NC) and JMP13 (SAS) is used for the statistical analyses. […] Variables with a normal distribution are analyzed with Student's t-test, variables with a non-normal distribution with Mann-Whitney U, and proportions with the chi-square test. […]

[5] = daily administration of 15 µg 25(OH)D (Ingels et al. 2010)

## C=C1CC[C@H](O)C/C1=C/C=C1\CCC[C@]2(C)[C@@H]([C@H](C)CCCC(C)(C)O)CC[C@@H]12 [25OHD, 25-hydroxyvitamin D]
[1]; [5]
  level of 1,25(OH)2D3: only a transient increase
  serum levels of 25OHD: increased the serum levels of 25OHD
[2]
  increase of serum 25OHD per daily dose of 1 ug of 25OHD: 1.2 ng/mL
[3]; 10-day period, IV replacement dose 15 µg 25OHD per day
  25OHD serum concentration as compared with placebo: remained elevated throughout the 10-day period
[3]; IV 200 µg loading dose, then 15 µg/day for 10 days
  concentrations of 1,25(OH)2D: only transiently increased
[3]; IV loading dose of 200 µg 25OHD
  increase in serum 25OHD after bolus: 11 ng/mL
[3]; daily supplement of 15 µg of 25OHD
  increase of 25OHD levels: about 8 ng/ml
[3]; following the intravenous loading dose of 200 µg 25OHD, 20 ng/ml target
  25OHD serum concentrations: instantly rose but did not reach the 20 ng/ml target
[3]; from 9.2 ng/ml baseline
  increase of 25OHD levels in the subgroup receiving the active treatment: 6.8 ng/mL
[3]; human, in vivo
  catabolism of 25OHD in ICU patients versus normal subjects of the same age: at least 3 fold
[3]; human, in vivo, iv
  Vd: ~18 L
[4]
  safety endpoints (clinical outcome parameters): positive effects

## C=C1CC[C@H](O)C/C1=C/C=C1\CCC[C@]2(C)[C@@H]([C@H](C)CCCC(C)C)CC[C@@H]12 [vitamin D3]
[1]; oral, high dose, except subgroup with baseline severe vitamin D deficiency (lower hospital mortality)
  outcome of critically ill patients: did not affect outcome
